Test results taken from ChEMBL document CHEMBL1201862, “PubChem BioAssay data set” (2004).
The source made the active and inactive calls.

How the values were obtained:
[1] = target: T1, Heat shock factor protein 1 (Mus musculus, UniProt P38532); assay: decrease of HSF1-responsive luciferase luminescence – cell-based, NIH3T3, dose retest, confirmation (AID 2382); format: functional;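 also: NIH3T3 fibroblasts with HSF1-driven luciferase reporter stressed by proteasome inhibitor MG132; luminescence from HSF1-driven luciferase expression after 8 hours of MG132 stress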
T1 sequence (P38532 whole entry): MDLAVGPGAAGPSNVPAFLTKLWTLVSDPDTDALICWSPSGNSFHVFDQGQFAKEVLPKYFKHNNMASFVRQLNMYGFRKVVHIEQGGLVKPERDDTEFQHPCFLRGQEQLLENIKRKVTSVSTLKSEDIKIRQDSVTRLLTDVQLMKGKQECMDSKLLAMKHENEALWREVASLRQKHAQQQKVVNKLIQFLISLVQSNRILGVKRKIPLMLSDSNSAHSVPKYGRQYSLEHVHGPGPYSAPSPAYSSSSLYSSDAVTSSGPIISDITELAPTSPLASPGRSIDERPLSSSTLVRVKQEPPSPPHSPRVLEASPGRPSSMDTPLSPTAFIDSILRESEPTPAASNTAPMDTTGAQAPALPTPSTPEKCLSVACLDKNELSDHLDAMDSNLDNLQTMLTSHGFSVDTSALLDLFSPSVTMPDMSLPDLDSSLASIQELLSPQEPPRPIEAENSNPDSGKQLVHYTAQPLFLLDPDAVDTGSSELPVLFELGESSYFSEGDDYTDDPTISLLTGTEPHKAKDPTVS

[2] = target: Luciferin 4-monooxygenase (Photinus pyralis, UniProt P08659); assay: inhibition of purified Photinus pyralis luciferase – biochemical, luminescence, dose response (AID 1891)
Luciferin 4-monooxygenase, sequence (P08659 whole entry): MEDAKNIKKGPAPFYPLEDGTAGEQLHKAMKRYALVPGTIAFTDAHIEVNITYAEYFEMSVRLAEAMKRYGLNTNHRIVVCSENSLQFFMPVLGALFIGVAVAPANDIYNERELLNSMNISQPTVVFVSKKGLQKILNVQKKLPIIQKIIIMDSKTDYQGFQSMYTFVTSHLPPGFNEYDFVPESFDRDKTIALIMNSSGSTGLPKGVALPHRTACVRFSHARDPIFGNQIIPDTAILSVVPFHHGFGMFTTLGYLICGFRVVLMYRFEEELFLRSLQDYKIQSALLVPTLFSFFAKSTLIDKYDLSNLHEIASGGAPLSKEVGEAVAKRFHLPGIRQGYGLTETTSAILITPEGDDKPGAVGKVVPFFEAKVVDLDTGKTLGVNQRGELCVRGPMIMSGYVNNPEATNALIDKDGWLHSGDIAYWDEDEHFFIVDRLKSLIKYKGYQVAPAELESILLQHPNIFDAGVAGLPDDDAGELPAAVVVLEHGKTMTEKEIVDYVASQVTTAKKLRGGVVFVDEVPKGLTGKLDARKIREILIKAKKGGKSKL

[3] = Luminescence Cell-Based Dose Confirmation HTS to Identify Inhibitors of Platelet Dense Granule Release. [Related pubchem assays: 1663 (Primary HTS), 1678 (Summary of Project)]; format: functional
[4] = HEK-293T viability loss after treatment – luminescence, T-cell screen hits, cytotoxicity control for TCR NF-kB inhibitor project, dose response (AID 489026); format: functional, cell-based;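 also: cells exposed to compound about 14 hours before the viability readout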
[5] = target: T2, Microphthalmia-associated transcription factor (Homo sapiens, UniProt O75030); assay: reducers of TRPM1 reporter luminescence, concentration series – cell-based, SK-MEL-5, cherry-picked, set 3, MITF inhibitor project, dose response (AID 493073); format: functional;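 also: SK-MEL-5 melanoma cells with luciferase driven by the MITF target TRPM1 promoter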
T2 sequence (O75030 whole entry): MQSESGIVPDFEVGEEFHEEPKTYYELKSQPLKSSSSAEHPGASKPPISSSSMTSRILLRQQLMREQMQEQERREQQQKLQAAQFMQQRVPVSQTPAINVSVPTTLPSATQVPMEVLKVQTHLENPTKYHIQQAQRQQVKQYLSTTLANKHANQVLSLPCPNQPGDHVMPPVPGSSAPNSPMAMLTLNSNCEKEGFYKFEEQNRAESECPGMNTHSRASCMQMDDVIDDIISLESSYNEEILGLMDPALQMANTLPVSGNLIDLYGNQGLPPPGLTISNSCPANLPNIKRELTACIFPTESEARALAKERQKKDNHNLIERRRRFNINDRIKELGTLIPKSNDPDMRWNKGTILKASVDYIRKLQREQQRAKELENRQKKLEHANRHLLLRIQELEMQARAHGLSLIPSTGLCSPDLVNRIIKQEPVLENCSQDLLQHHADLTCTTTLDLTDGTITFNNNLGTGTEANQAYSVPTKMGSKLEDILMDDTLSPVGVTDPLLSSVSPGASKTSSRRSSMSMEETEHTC

A-375 = assay: MITF: Counter assay: A375 proliferation Measured in Cell-Based System Using Plate Reader - 2084-03_Inhibitor_Dose_DryPowder_Activity. [Related pubchem assays (depositor defined):AID488944]; format: functional; conditions: Homo sapiens
[6] = reduction of Shn3 3'UTR-driven luciferase in osteoblasts – cell-based, Clone20 osteoblasts, firefly luciferase, cherry-picked, dose response (AID 624132); format: functional;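 also: firefly luciferase luminescence from reporter carrying the Shn3 3'UTR in osteoblasts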
[7] = loss of viability in HepG2 cells – cell-based, CellTiter-Glo, cherry-picked, cytotoxicity control for Shn3 inhibitor project, dose response (AID 624134); format: functional
[8] = blockers of HIV-1 envelope-mediated cell-cell fusion – cherry-pick, dose response (AID 652057); format: functional, cell-based
[9] = viability loss in CEM21 cells – cell-based, CellTiter-Glo luminescence, cherry-picked, cytotoxicity control for viral fusion inhibitor project, dose response (AID 652042); format: functional;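 also: potency for signal decrease meaning cytotoxicity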
[10] = blockers of HIV-1 ZM109 envelope-driven cell-cell fusion – HeLa effector, CEM target cells, luciferase, cherry-pick, dose response (AID 652058); format: functional, cell-based;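 also: luciferase signal from HIV-1 Env mediated cell-cell fusion of effector and target cells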
Paired box protein Pax-8 = Paired box protein Pax-8 (Homo sapiens, UniProt Q06710); assay: PAX8 transcriptional activity inhibition in RMG-I – RMG-I cells, luciferase, cherry-pick, dose response (AID 687027); format: functional, cell-based;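 also: luciferase reporter driven by Pax8 target thyroperoxidase promoter measured by SteadyGlo luminescence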
Paired box protein Pax-8, sequence (Q06710 whole entry, the tested form may be a part): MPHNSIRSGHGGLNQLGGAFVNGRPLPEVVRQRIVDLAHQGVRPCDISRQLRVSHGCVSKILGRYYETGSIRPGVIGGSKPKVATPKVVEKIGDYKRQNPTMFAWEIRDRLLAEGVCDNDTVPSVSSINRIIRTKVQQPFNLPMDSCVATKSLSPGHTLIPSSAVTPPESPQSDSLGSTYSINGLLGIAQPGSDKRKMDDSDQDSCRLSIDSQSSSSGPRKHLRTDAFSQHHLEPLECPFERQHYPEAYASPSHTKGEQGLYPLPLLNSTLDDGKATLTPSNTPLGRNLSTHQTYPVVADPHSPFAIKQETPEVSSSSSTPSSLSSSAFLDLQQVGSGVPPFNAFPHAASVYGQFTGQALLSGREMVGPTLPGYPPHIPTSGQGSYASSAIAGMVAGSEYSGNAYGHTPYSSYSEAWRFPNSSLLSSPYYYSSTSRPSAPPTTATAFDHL

[11] = off-target signal loss in HeLa-CEM21 co-culture – HeLa F-luc CTL cells, cherry-picked, counter-screen for HIV-1 Env fusion inhibitor project, dose response (AID 652040); format: functional, cell-based;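 also: potency for signal decrease marking cytotoxic or nonspecific inhibition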
[12] = HIV-1 AD8 envelope cell-cell fusion blockers – cherry-pick, dose response (AID 652062); format: functional, cell-based;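 also: luciferase signal from cell-cell fusion driven by HIV-1 clade B AD8 Env; potency is for inhibitors of fusion seen as a drop in luminescence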
[13] = A549 cell cytotoxicity, dose response, cytotoxicity control, plate reader, cherry-pick, antagonist series (AID 743412); format: functional, cell-based
[14] = toxicity toward HepG2 liver cells – cell-based, plate reader, cherry-pick, antagonist series, cytotoxicity control, dose response (AID 743416); format: functional
[15] = blockers of bursicon-stimulated LGR2 cAMP reporter – cell-based, HEK293, CRE-luciferase reporter, cherry pick, set 2, dose response (AID 743343); format: functional;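 also: transfected cells were stimulated with diluted bursicon conditioned medium after compound addition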
[16] = general cell-killing toxicity readout – plate reader, dry powder samples, cytotoxicity control for PAX8 inhibitor project, dose response (AID 743021); format: functional, cell-based
[17] = blockade of melanocortin 4 receptor signaling – cell-based, plate reader, cherry pick, counter-screen for LGR2 antagonist project, dose response (AID 743444); format: functional;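 also: transfected HEK 293 cells stimulated with alpha-MSH peptide; potency of inhibitors of the alpha-MSH evoked signal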
[18] = viability loss in HEK293 cells – cell-based, plate reader, cherry-picked samples, cytotoxicity control, dose response (AID 743446); format: functional
Hexokinase-1 = target: T3, Hexokinase-1 (Homo sapiens, UniProt P19367); assay: SAR analysis of small molecule inhibitors of hexokinase domain containing I (HKDC1) in the hexokinase 1 selectivity assay. [Related pubchem assays (depositor defined):AID493160, AID493190]; format: functional
T3 sequence (P19367 whole entry): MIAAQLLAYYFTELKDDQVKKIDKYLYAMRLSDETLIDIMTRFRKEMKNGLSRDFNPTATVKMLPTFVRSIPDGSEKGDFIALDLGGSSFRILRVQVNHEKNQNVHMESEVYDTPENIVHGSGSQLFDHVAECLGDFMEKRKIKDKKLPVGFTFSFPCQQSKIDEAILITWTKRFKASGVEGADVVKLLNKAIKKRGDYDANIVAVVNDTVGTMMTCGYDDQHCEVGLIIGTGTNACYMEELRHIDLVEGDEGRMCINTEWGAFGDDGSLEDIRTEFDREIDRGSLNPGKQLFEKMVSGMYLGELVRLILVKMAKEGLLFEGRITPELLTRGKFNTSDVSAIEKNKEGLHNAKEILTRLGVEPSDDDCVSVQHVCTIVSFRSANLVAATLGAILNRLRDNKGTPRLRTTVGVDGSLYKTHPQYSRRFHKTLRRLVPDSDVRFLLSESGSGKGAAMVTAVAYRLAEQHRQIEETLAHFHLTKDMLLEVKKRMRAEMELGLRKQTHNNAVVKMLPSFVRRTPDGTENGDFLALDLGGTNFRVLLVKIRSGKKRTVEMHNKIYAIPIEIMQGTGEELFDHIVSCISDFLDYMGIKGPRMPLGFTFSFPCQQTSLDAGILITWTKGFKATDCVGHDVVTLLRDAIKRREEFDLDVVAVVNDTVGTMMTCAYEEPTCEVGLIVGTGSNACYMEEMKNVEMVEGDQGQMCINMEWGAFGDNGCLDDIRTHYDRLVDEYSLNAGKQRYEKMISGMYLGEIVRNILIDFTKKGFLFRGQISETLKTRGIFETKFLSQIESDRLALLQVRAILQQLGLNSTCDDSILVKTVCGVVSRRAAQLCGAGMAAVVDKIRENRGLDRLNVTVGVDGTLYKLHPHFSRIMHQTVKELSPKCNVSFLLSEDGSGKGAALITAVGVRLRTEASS

Hexokinase HKDC1 = target: T4, Hexokinase HKDC1 (Homo sapiens, UniProt Q2TB90); assay: SAR analysis of small molecule inhibitors of hexokinase domain containing I (HKDC1). [Related pubchem assays (depositor defined):AID493160, AID493190]; format: functional
T4 sequence (Q2TB90 whole entry): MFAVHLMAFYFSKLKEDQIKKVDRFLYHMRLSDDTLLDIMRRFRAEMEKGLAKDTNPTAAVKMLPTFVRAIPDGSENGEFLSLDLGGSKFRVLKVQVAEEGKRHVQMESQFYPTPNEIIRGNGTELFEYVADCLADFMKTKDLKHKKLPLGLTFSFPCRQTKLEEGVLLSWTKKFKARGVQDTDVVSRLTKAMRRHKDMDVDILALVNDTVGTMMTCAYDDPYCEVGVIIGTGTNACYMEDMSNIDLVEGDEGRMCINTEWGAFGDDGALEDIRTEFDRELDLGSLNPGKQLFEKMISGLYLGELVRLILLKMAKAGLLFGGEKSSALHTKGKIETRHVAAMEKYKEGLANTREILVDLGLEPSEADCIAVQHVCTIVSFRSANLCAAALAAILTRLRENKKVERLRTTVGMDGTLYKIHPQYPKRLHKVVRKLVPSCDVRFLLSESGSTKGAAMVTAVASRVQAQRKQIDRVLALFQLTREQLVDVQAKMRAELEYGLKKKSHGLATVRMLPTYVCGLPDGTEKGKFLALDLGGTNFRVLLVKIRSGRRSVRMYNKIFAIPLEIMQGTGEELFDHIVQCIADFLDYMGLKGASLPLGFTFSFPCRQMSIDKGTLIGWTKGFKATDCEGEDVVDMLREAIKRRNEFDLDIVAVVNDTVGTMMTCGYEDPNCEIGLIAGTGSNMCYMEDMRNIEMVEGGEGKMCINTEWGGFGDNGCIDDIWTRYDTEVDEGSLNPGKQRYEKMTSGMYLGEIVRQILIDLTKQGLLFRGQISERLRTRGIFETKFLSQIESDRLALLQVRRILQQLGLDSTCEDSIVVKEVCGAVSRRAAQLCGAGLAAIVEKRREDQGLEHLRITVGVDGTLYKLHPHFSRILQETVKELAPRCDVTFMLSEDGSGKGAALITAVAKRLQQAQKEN

[19] = target: E3 ubiquitin-protein ligase Mdm2 (Homo sapiens, UniProt Q00987); assay: MDM2-luc reporter signal enhancers, multi-concentration potency testing, MDM2 ubiquitin-protein ligase inhibitor program, whole-cell format, luminescence detection, 384-well microplate (AID 1394); format: functional;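 also: MDM2 E3 inhibitors raise luminescence so EC50 is for signal enhancement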
E3 ubiquitin-protein ligase Mdm2, sequence (Q00987 whole entry): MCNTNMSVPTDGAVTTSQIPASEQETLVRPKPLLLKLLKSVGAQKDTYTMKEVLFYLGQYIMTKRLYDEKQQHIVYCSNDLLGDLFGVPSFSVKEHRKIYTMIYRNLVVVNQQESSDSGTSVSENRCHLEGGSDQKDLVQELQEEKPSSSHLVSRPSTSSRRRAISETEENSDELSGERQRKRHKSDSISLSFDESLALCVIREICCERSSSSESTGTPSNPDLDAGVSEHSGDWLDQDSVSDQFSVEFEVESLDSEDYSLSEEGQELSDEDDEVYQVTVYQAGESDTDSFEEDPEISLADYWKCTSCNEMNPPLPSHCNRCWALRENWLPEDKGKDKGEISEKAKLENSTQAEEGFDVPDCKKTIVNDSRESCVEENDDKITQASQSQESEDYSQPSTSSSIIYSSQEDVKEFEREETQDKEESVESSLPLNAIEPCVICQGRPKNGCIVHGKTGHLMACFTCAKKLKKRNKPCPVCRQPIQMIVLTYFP

[20] = target: Induced myeloid leukemia cell differentiation protein Mcl-1 (Homo sapiens, UniProt Q07820); format: functional
Induced myeloid leukemia cell differentiation protein Mcl-1, sequence (Q07820 whole entry): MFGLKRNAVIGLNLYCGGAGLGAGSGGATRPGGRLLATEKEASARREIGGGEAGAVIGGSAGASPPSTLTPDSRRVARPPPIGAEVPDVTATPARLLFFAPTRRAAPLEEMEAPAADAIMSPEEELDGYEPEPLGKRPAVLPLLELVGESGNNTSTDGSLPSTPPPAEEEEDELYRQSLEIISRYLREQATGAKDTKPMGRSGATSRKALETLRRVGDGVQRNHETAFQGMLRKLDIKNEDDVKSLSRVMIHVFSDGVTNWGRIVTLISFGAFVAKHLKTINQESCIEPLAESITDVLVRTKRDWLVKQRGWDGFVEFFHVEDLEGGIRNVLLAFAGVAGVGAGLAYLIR

Vero = assay: viability of Vero cells under compound – cytotoxicity control for flavivirus capping enzyme inhibitors (AID 588742); format: functional; conditions: Chlorocebus sabaeus
Beta-arrestin-1 = Beta-arrestin-1 (Homo sapiens, UniProt P49407); assay: beta-arrestin/AP2 interaction blockers, potency – biochemical, cherry pick 1, beta2-adaptin appendage, flow cytometry, dose response (AID 588783); format: functional
Beta-arrestin-1, sequence (P49407 whole entry): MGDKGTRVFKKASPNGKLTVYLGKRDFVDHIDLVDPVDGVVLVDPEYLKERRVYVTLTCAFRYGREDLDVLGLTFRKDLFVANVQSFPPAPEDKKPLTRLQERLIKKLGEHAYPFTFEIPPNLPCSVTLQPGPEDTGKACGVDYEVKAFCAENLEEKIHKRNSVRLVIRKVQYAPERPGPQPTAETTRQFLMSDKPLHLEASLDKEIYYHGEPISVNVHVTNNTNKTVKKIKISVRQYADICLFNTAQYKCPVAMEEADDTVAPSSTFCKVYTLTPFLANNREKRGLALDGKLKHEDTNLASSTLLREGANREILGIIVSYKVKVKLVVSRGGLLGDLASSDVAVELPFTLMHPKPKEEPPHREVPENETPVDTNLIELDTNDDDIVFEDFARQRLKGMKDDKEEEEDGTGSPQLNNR

Genome polyprotein = Genome polyprotein (dengue virus type 2, UniProt P29990); assay: flavivirus cap methylation enzyme inhibition – biochemical, confirmation dose response, primary screen (AID 588689); format: functional
Genome polyprotein, sequence (P29990 2492-3391 limits assumed): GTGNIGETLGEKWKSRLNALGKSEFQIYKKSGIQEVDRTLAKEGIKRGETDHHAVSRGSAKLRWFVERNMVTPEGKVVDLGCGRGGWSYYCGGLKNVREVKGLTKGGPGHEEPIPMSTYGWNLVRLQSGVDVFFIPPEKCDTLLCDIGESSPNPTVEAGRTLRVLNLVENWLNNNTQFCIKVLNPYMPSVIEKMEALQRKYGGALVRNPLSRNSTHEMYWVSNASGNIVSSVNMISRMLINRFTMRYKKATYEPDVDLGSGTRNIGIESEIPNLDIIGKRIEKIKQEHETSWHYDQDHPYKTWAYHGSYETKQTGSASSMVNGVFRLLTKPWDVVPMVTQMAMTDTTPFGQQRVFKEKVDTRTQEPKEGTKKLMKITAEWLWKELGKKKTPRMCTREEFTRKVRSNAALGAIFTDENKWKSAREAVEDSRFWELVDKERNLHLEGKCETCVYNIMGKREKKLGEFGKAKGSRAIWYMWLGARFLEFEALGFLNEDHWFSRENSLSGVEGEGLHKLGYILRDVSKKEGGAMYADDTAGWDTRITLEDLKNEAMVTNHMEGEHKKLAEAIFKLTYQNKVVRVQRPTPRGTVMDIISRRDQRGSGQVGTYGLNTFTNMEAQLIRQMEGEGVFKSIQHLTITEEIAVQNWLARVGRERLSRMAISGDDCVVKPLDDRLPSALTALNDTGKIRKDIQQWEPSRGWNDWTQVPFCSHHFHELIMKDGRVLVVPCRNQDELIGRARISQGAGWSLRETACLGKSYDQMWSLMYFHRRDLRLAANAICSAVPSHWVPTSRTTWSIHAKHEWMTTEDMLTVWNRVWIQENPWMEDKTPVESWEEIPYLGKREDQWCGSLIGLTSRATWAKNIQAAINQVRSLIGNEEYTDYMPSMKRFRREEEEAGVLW

[21] = viability loss in HeLa cells – cytotoxicity control for MgcRacGAP inhibitor project, dose response (AID 624300); format: functional
[22] = viability loss in THP-1 monocytes – THP-1 cells, cytotoxicity control for Vif-APOBEC3G degradation inhibitor project, dose response (AID 1117359); format: functional; conditions: THP-1

C=CCn1c(C)cc(C2=NN=C(NCC)SC2)c1C
inactive: IC50 [4] > 80 µM
active: EC50 [1] < 0.16 µM | EC50 [2] 5.03 µM | EC50 [3] 2.02 µM | AC50 [5] 0.056 µM | AC50 (A-375) 25.7 µM | AC50 [6] < 0.26 µM | AC50 [7] 26 µM | AC50 [8] 0.295 µM | AC50 [9] 34.7 µM | AC50 [10] 2.94 µM | AC50 (Paired box protein Pax-8) 0.267 µM | AC50 [11] 0.554 µM | AC50 [12] 0.359 µM | AC50 [13] 11.7 µM | AC50 [14] 3.64 µM | AC50 [15] < 0.068 µM | AC50 [16] 8.07 µM | AC50 [17] < 0.068 µM | AC50 [18] 14.5 µM

O=c1c2ccccc2nc(/C=C/c2ccc3c(c2)OCO3)n1Cc1ccccc1
inactive: IC50 (Hexokinase-1) > 80 µM | IC50 (Hexokinase HKDC1) > 80 µM

Cc1cccc2c1c1ccc3c(c1n2C)C(=O)C=CC3=O
active: EC50 [19] 1.03 µM | IC50 [20] 3.22 µM | CC50 (Vero) 34.7 µM | IC50 (Beta-arrestin-1) 7.34 µM | IC50 (Genome polyprotein) 33.5 µM | CC50 [21] 100 µM | CC50 [22] 14.1 µM
